The results in this text go back to PubChem BioAssay (NCI).

Among the test systems are MCF7 breast; HOP-62 NSCLC; K-562 leukemia; KM12 colon; TK-10 renal; RPMI-8226 leukemia; SF-268 CNS; SK-MEL-28 melanoma; NCI-H460 lung; SNB-75 CNS.
Holding throughout (assay): DTP human tumour cell line panel, 48 h

Molecules are shown by their SMILES.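 Interpolation was linear, between the two tested concentrations surrounding the appropriate level; five concentrations were tested over 48 hours in 96-well plates. Here, GI50 denotes the concentration required for 50% inhibition of growth. TGI: concentration producing complete growth inhibition.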

Take `N#CC1CCc2c(c(-c3cn[nH]c3C(F)(F)F)nc3c(F)cc4[nH]ncc4c23)C1` (stereo not given): the GI50 with MCF7 breast is 3.5 µM; with HOP-62 NSCLC it was 6.09 µM; with K-562 leukemia it was 9.53 µM; in the experiment on KM12 colon it was 3.34 µM; with TK-10 renal, 6.28 µM; in the experiment on RPMI-8226 leukemia, 8.4 µM. Moreover, the GI50 in the experiment with SF-268 CNS was 5.02 µM; in the experiment with SK-MEL-28 melanoma, 4.43 µM; with NCI-H460 lung it was 11.8 µM; with SNB-75 CNS it was 3.38 µM. The TGI with MCF7 breast is 47.4 µM; in the experiment on HOP-62 NSCLC, 33.7 µM; with K-562 leukemia, above 100 µM; in the experiment on KM12 colon, 41.9 µM; in the experiment with TK-10 renal it was 57.9 µM; in the experiment on RPMI-8226 leukemia it was 78.1 µM. The TGI in the experiment on SF-268 CNS came to 27.4 µM; in the experiment with SK-MEL-28 melanoma it was 30.4 µM; in the experiment on NCI-H460 lung it was 38.8 µM; with SNB-75 CNS, 8.96 µM.

On to `Cc1nn2c(/C=C3\C(=O)Nc4ccccc43)c(C)nc2s1`, for which the GI50 was 7.46 µM in the experiment on MCF7 breast; 15.7 µM with HOP-62 NSCLC; 6.71 µM in the experiment on K-562 leukemia; 6.4 µM in the experiment with KM12 colon; 88.7 µM with TK-10 renal; 49 µM in the experiment with RPMI-8226 leukemia. The GI50 in the experiment with SF-268 CNS was 54.6 µM; in the experiment with SK-MEL-28 melanoma, above 100 µM; in the experiment on NCI-H460 lung it was 13.3 µM; with SNB-75 CNS, 53.7 µM. Besides, the TGI in the experiment with MCF7 breast, in the experiment with HOP-62 NSCLC, with K-562 leukemia, with KM12 colon, in the experiment on TK-10 renal and with RPMI-8226 leukemia was above 100 µM each time. Besides, the TGI with SF-268 CNS, in the experiment on SK-MEL-28 melanoma, with NCI-H460 lung and in the experiment on SNB-75 CNS was above 100 µM each time.

With `Cc1cc(Cl)ccc1NC(=O)NC(C)(C)COC(=O)Nc1cccc(Cl)c1`, the GI50 in the experiment on MCF7 breast is 2.49 µM; with HOP-62 NSCLC it was 14.1 µM; in the experiment on K-562 leukemia it was 5.09 µM; in the experiment with KM12 colon it was 3.78 µM; with TK-10 renal, 8.86 µM; in the experiment on RPMI-8226 leukemia it was 3.26 µM. The GI50 is 13.5 µM in the experiment on SF-268 CNS, 22.3 µM with SK-MEL-28 melanoma, 4.86 µM in the experiment with NCI-H460 lung and 11.3 µM in the experiment on SNB-75 CNS. For the same compound, the TGI is 24.4 µM in the experiment on MCF7 breast; 50.5 µM with HOP-62 NSCLC; above 100 µM with K-562 leukemia; 17.6 µM with KM12 colon; above 100 µM in the experiment with TK-10 renal; 15.3 µM in the experiment on RPMI-8226 leukemia. Moreover, the TGI in the experiment on SF-268 CNS is 78 µM; in the experiment on SK-MEL-28 melanoma, above 100 µM; with NCI-H460 lung, 36.7 µM; in the experiment with SNB-75 CNS it was 47.1 µM.

Regarding `COc1cccc2ccc3c(c12)C(=O)OC31CCc2c(C)cccc21` (stereo not given), the TGI in the experiment on MCF7 breast is 41.9 µM; in the experiment with HOP-62 NSCLC, above 46.4 µM; with K-562 leukemia, 89.5 µM; with KM12 colon it was above 100 µM; with TK-10 renal it was above 100 µM; in the experiment on RPMI-8226 leukemia, 21.5 µM. Moreover, the TGI is above 46.4 µM in the experiment on SF-268 CNS, above 46.4 µM with SK-MEL-28 melanoma, above 31.6 µM in the experiment on NCI-H460 lung and 45.1 µM in the experiment with SNB-75 CNS.

`Cn1c(O)c(N=NC(N)=S)c2ccccc21`: the GI50 is 20.3 µM with MCF7 breast; 33.5 µM in the experiment on HOP-62 NSCLC; 95.2 µM with K-562 leukemia; 88.3 µM with KM12 colon; above 100 µM in the experiment with TK-10 renal; above 100 µM with RPMI-8226 leukemia. Further, the GI50 in the experiment with SF-268 CNS was 62.8 µM; in the experiment with SK-MEL-28 melanoma, above 100 µM; in the experiment on NCI-H460 lung, 33.9 µM; with SNB-75 CNS it was 18.3 µM. In addition, the TGI with MCF7 breast, in the experiment with HOP-62 NSCLC, in the experiment on K-562 leukemia, with KM12 colon, in the experiment with TK-10 renal and in the experiment with RPMI-8226 leukemia was above 100 µM each time. For the same compound, the TGI in the experiment on SF-268 CNS was above 100 µM; with SK-MEL-28 melanoma, above 100 µM; in the experiment on NCI-H460 lung, above 100 µM; in the experiment with SNB-75 CNS, 98 µM.

For the compound `C=C1C[C@@H]2[C@H](CC[C@]3(C)C(=O)CC[C@@H]23)[C@@]2(C)C=CC(=O)C=C12`, the GI50 was 14.6 µM in the experiment with MCF7 breast; 35.2 µM with HOP-62 NSCLC; above 59.8 µM with K-562 leukemia; 30.7 µM in the experiment with KM12 colon; 48.1 µM with TK-10 renal; 19.7 µM with RPMI-8226 leukemia. In addition, the GI50 in the experiment on SF-268 CNS was 57.1 µM; in the experiment with SK-MEL-28 melanoma, 42.5 µM; in the experiment with NCI-H460 lung, 22 µM; with SNB-75 CNS it was 30 µM. In addition, the TGI is above 62.2 µM with MCF7 breast; above 83.1 µM in the experiment with HOP-62 NSCLC; above 100 µM in the experiment with K-562 leukemia; above 70 µM with KM12 colon; above 100 µM with TK-10 renal; above 56.6 µM in the experiment on RPMI-8226 leukemia. Further, the TGI with SF-268 CNS is above 100 µM; in the experiment with SK-MEL-28 melanoma it was above 100 µM; in the experiment on NCI-H460 lung it was above 63.2 µM; in the experiment on SNB-75 CNS it was above 100 µM.

On to `CC(C)=CCC/C(C)=C/[C@H]1OC(=O)CC12C[C@H](O)C=CC2=O` (stereo not given in full), for which the GI50 with MCF7 breast was 0.421 µM; with HOP-62 NSCLC, 0.856 µM; with K-562 leukemia, 0.363 µM; with KM12 colon, 0.777 µM; with TK-10 renal it was 1.31 µM; in the experiment with RPMI-8226 leukemia it was 0.235 µM. In addition, the GI50 is 0.922 µM in the experiment with SF-268 CNS, 2.23 µM with SK-MEL-28 melanoma, 0.692 µM with NCI-H460 lung and 1.64 µM in the experiment on SNB-75 CNS. Besides, the TGI was 1.29 µM in the experiment on MCF7 breast; 2.43 µM in the experiment on HOP-62 NSCLC; above 100 µM in the experiment on K-562 leukemia; 2.67 µM in the experiment with KM12 colon; 2.93 µM in the experiment with TK-10 renal; 0.594 µM in the experiment with RPMI-8226 leukemia. The TGI was 2.65 µM in the experiment with SF-268 CNS, 5.09 µM in the experiment with SK-MEL-28 melanoma, 2.21 µM in the experiment on NCI-H460 lung and 4.2 µM with SNB-75 CNS.

As to `Cc1[nH]n(-c2ccccc2)c(=O)c1C(=O)c1ccccc1`, the GI50 with MCF7 breast was above 25 µM; in the experiment on HOP-62 NSCLC, above 25 µM; in the experiment with K-562 leukemia it was above 21.3 µM; in the experiment on KM12 colon, 11.7 µM; in the experiment with TK-10 renal, above 25 µM; with RPMI-8226 leukemia it was above 25 µM. The GI50 with SF-268 CNS was above 25 µM; with SK-MEL-28 melanoma, above 25 µM; with NCI-H460 lung it was above 19.5 µM; in the experiment on SNB-75 CNS, above 25 µM. For the same compound, the TGI in the experiment with MCF7 breast, with HOP-62 NSCLC, with K-562 leukemia, in the experiment on KM12 colon, in the experiment on TK-10 renal and in the experiment on RPMI-8226 leukemia was above 25 µM throughout. The TGI in the experiment on SF-268 CNS, with SK-MEL-28 melanoma, in the experiment with NCI-H460 lung and in the experiment on SNB-75 CNS was above 25 µM in each case.

As usually defined, the GI50 is the concentration giving 50% growth inhibition. By TGI is commonly meant the concentration at which net growth stops.
